Source: patent US11674951B2, “Methods for identifying a treatment for rheumatoid arthritis” (The Brigham and Women's Hospital, Inc., priority 2017, dated 2023)
Values joined by “and” are separate entries in the source; they are usually repeats but may differ in a detail not shown here. Equal entries are not always repeated.

What was measured:
active RA patients = experiment: Clinical response of active RA patients (CPIRA study) by Clinical Disease Activity Index (CDAI); format: in vivo, human; set-up: key to 2nd visit CDAI / ΔCDAI: CDAI = SJC(28)+TJC(28)+PGA+EGA; PGA/EGA on 1-10, 10 = maximal activity; conditions: for ΔCDAI: 1st visit minus 2nd visit CDAI; for 2nd visit CDAI: 12 weeks after the treatment started; for number of treated subjects who did not respond (CDAI definition) / number of treated subjects who responded (CDAI definition): seven CPIRA subjects treated per drug
Description: The Clinical Disease Activity Index (CDAI) is a useful clinical composite score for patients with rheumatoid arthritis. In some embodiments, it can be determined by the following formula: CDAI=SJC(28)+TJC(28)+PGA+EGA, wherein SJC(28) is Swollen 28-Joint Count (shoulders, elbows, wrists, MCPs, PIPs including thumb IP, knees), TJC(28) is Tender 28-Joint Count (shoulders, elbows, wrists, MCPs, PIPs including thumb IP, knees), PGA is Patient Global disease Activity (patient's self assessment of overall RA disease activity on a scale 1-10 where 10 is maximal activity), and EGA is Evaluator's Global disease Activity (evaluator's assessment of overall RA disease activity on a scale 1-10 where 10 is maximal activity). In some embodiments, a subject with an RA can have a CDAI that is equal to or greater than 5, 10, 15, or 20. In some embodiments, the subject has an active RA, and a subject with an active RA can have a CDAI that is equal to or greater than 10. A CDAI that is equal to or greater than 10 often indicates moderate or severe RA.
Active RA patients were recruited through the Central Pain in Rheumatoid Arthritis (CPIRA) study. The PBMC were collected from active RA patients at the time when they switched or started a new RA treatment and were also collected 12 weeks after the treatment started.
PBMC collected from 14 CPIRA subjects before they started either etanercept or adalimumab were analyzed (Table 1). Seven of the […] subjects were treated by etanercept.
The responsiveness to treatment was determined by the following definition.
CDAI decrease>=12 for those with baseline CDAI>22,
CDAI decrease>=6 for those with baseline CDAI>=10,
CDAI decrease>=1 for those with baseline CDAI<10.

[1] = tested on: PTPN22 transcripts in PBMC; experiment: Anti-CD3 antibody induced PTPN22 transcript level in PBMC in absence or presence of drug (RT-PCR, drug/no-drug ratio); format: cell-based, human; conditions: anti-CD3 2.5 ug/ml, 24 hours
Experimental: PBMCs (1 million cells) of these subjects that were collected before the treatment were stimulated in vitro with anti-CD3 antibodies (2.5 ug/ml) in the absence or presence of corresponding drug (etanercept 250 ug/ml, adalimumab 100 ug/ml) for 24 hours. PBMC from subject BW34 was tested separately with etancercept and adalimumab. RNA was harvested from the stimulated cells and the level of PTPN22 transcripts was quantified with RT-PCR.
The PTPN22 level from cells stimulated in the presence of drug was then divided by the level obtained from cells stimulated in the absence of drug. This drug/no-drug ratio calculated from the 9 drug responders ranged from 1.67 to 2.5, whereas the ratio calculated from the 6 drug non-responders ranged from 0.86 to 1.35 (FIG. 4 and Table 1). […]

[2] = adalimumab non-responders, one value per subject: BW34, BW83
[3] = adalimumab responders, one value per subject: BW32, BW57, BW85, BW89, BS137
[4] = etanercept non-responders, one value per subject: BW53, BW80, BW116
[5] = etanercept responders, one value per subject: BW39, BW56, BW82, BW110

adalimumab
ΔCDAI (active RA patients; [2]): 4.8 and 1 | 2nd visit CDAI (active RA patients; [2]): 24.2 and 13 | ΔCDAI (active RA patients; [3]): 15.2 and 10 and 21 and 23 and 13 | 2nd visit CDAI (active RA patients; [3]): 0 and 9 and 25 and 34 and 18 | number of treated subjects who did not respond (CDAI definition) (active RA patients): two | number of treated subjects who responded (CDAI definition) (active RA patients): five | PTPN22 Drug/no-drug ratio ([1]; PBMC of adalimumab non-responders collected before treatment, adalimumab 100 ug/ml, one value per subject: BW34, BW83): 1.17 and 0.93 | PTPN22 Drug/no-drug ratio ([1]; PBMC of adalimumab responders collected before treatment, adalimumab 100 ug/ml, one value per subject: BW32, BW57, BW85, BW89, BS137): 1.82 and 1.77 and 1.97 and 2.37 and 1.67

etanercept
ΔCDAI (active RA patients; [4]): 1.5 and −0.5 and 6 | 2nd visit CDAI (active RA patients; [4]): 25.5 and 21.5 and 23 | ΔCDAI (active RA patients; [5]): 12.5 (2×) and 9 and 23 | 2nd visit CDAI (active RA patients; [5]): 0 and 6.5 and 6 and 12 | number of treated subjects who did not respond (CDAI definition) (active RA patients): three | number of treated subjects who responded (CDAI definition) (active RA patients): Four | PTPN22 Drug/no-drug ratio ([1]; PBMC of etanercept non-responders collected before treatment, etanercept 250 ug/ml, one value per subject: BW53, BW80, BW116, BW34*): 0.86 and 1.18 and 1.23 and 1.35 | PTPN22 Drug/no-drug ratio ([1]; PBMC of etanercept responders collected before treatment, etanercept 250 ug/ml, one value per subject: BW39, BW56, BW82, BW110): 2.14 and 2.04 and 1.82 and 2.5
